According to PubChem BioAssay AID2060905 (Molecular Pharmacology Branch, DTP, NCI, 2025):
Several values for one entry are separate records, joined by “and”; a condition that tells them apart may be missing. Equal entries are not always repeated.

Test system: 282377-053-R-J1-PDC complex spheroid viability
Test: Anticancer human tumor 282377-053-R-J1-PDC patient-derived colon adenocarcinoma cell line growth inhibition [RAS]
Conditions: for viability, T/C: stronger effect = lower value; active means viability on the fitted dose curve at most 10% of control; inactive means the rest
How it was run: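 Multi-cell-type spheroids: tumor cells plus HUVEC endothelial cells and mesenchymal stem cells. RAS-pathway inhibitors were combined with targeted agents, each dosed in half-log steps down from clinical Cmax, or from 10 microM when Cmax was unknown.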

[1] = curve of first compound, second compound 0.0316 µM
[2] = curve of first compound, second compound 0.1 µM
[3] = curve of first compound, second compound 0.316 µM
[4] = curve of first compound, second compound 1 µM
[5] = curve of first compound, second compound 3.16 µM
[6] = curve of first compound, second compound 10 µM
[7] = second compound 0.0316 µM, first compound 0.00316 µM
[8] = second compound 0.0316 µM, first compound 0.01 µM
[9] = second compound 0.0316 µM, first compound 0.0316 µM
[10] = second compound 0.0316 µM, first compound 0.1 µM
[11] = second compound 0.0316 µM, first compound 0.316 µM
[12] = second compound 0.0316 µM, first compound 1 µM
[13] = second compound 0.1 µM, first compound 0.00316 µM
[14] = second compound 0.1 µM, first compound 0.01 µM
[15] = second compound 0.1 µM, first compound 0.0316 µM
[16] = second compound 0.1 µM, first compound 0.1 µM
[17] = second compound 0.1 µM, first compound 0.316 µM
[18] = second compound 0.1 µM, first compound 1 µM
[19] = second compound 0.316 µM, first compound 0.00316 µM
[20] = second compound 0.316 µM, first compound 0.01 µM
[21] = second compound 0.316 µM, first compound 0.0316 µM
[22] = second compound 0.316 µM, first compound 0.1 µM
[23] = second compound 0.316 µM, first compound 0.316 µM
[24] = second compound 0.316 µM, first compound 1 µM
[25] = second compound 1 µM, first compound 0.00316 µM
[26] = second compound 1 µM, first compound 0.01 µM
[27] = second compound 1 µM, first compound 0.0316 µM
[28] = second compound 1 µM, first compound 0.1 µM
[29] = second compound 1 µM, first compound 0.316 µM
[30] = second compound 1 µM, first compound 1 µM
[31] = second compound 3.16 µM, first compound 0.00316 µM
[32] = second compound 3.16 µM, first compound 0.01 µM
[33] = second compound 3.16 µM, first compound 0.0316 µM
[34] = second compound 3.16 µM, first compound 0.1 µM
[35] = second compound 3.16 µM, first compound 0.316 µM
[36] = second compound 3.16 µM, first compound 1 µM
[37] = second compound 10 µM, first compound 0.00316 µM
[38] = second compound 10 µM, first compound 0.01 µM
[39] = second compound 10 µM, first compound 0.0316 µM
[40] = second compound 10 µM, first compound 0.1 µM
[41] = second compound 10 µM, first compound 0.316 µM
[42] = second compound 10 µM, first compound 1 µM
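Further: spheroids exposed to agents for seven days before readout.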
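Wherever viability, T/C is given: luminescence viability as percent of DMSO vehicle control wells.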

C=CC(=O)Nc1cc(Nc2nccc(-c3cn(C)c4ccccc34)n2)c(OC)cc1N(C)CCN(C)C + C#Cc1c(F)ccc2cc(O)cc(-c3ncc4c(N5CC6CCC(C5)N6)nc(OCC56CCCN5CC(F)C6)nc4c3F)c12
inactive: viability, T/C [7] 104% | viability, T/C [8] 91.5% | viability, T/C [9] 98.2% | viability, T/C [10] 104% | viability, T/C [11] 95.6% | viability, T/C [12] 110% | viability, T/C [13] 96.6% | viability, T/C [14] 90.4% | viability, T/C [15] 99.9% | viability, T/C [16] 91.9% | viability, T/C [17] 93.5% | viability, T/C [18] 97.4% | viability, T/C [19] 88.1% | viability, T/C [20] 85.3% | viability, T/C [21] 84.9% | viability, T/C [22] 86.1% | viability, T/C [23] 91.7% | viability, T/C [24] 85.9% | viability, T/C [25] 98.5% | viability, T/C [26] 100% | viability, T/C [27] 93% | viability, T/C [28] 108% | viability, T/C [29] 82.8% | viability, T/C [30] 95.9% | viability, T/C [31] 88.2% | viability, T/C [32] 87.8% | viability, T/C [33] 114% | viability, T/C [34] 92.3% | viability, T/C [35] 108% | viability, T/C [36] 101% | viability, T/C [37] 103% | viability, T/C [38] 94.9% | viability, T/C [39] 108% | viability, T/C [40] 73% | viability, T/C [41] 80.1% | viability, T/C [42] 99.2%
> 1000 nM: IC50 [1] | IC50 [2] | IC50 [3] | IC50 [4] | IC50 [5] | IC50 [6]

C=CC(=O)N1CCN(c2nc(OCC3CCCN3C)nc3c(F)c(-c4nc(N)cc(C)c4C(F)(F)F)c(Cl)cc23)C(C)C1 (stereo not given)
> 1000 nM: IC50 (compound alone, run of 06/10/2024) | IC50 (curve of compound)
inactive: viability, T/C (compound 0.0316 µM) 105% [middle of 12 runs] | viability, T/C (compound 0.316 µM) 100% [middle of 12 runs]

CC(=O)OC12COC1CC(O)C1(C)C(=O)C(O)C3=C(C)C(OC(=O)C(O)C(NC(=O)OC(C)(C)C)c4ccccc4)CC(O)(C(OC(=O)c4ccccc4)C21)C3(C)C (stereo not given) + C#Cc1c(F)ccc2cc(O)cc(-c3ncc4c(N5CC6CCC(C5)N6)nc(OCC56CCCN5CC(F)C6)nc4c3F)c12
< 31.6 nM: IC50 [1] | IC50 [2] | IC50 [3] | IC50 [4] | IC50 [5] | IC50 [6]
inactive: viability, T/C [9] 21.9% | viability, T/C [10] 20.5% | viability, T/C [11] 23.9% | viability, T/C [12] 29.7% | viability, T/C (second compound 0.0316 µM, first compound 3.16 µM) 43.1% | viability, T/C (second compound 0.0316 µM, first compound 10 µM) 52.1% | viability, T/C [15] 25.4% | viability, T/C [16] 23.1% | viability, T/C [17] 23.4% | viability, T/C [18] 28.7% | viability, T/C (second compound 0.1 µM, first compound 3.16 µM) 49.8% | viability, T/C (second compound 0.1 µM, first compound 10 µM) 69.4% | viability, T/C [21] 28.6% | viability, T/C [22] 24.7% | viability, T/C [23] 26.7% | viability, T/C [24] 30.2% | viability, T/C (second compound 0.316 µM, first compound 3.16 µM) 47.4% | viability, T/C (second compound 0.316 µM, first compound 10 µM) 67.2% | viability, T/C [27] 32.6% | viability, T/C [28] 25% | viability, T/C [29] 26.6% | viability, T/C [30] 33% | viability, T/C (second compound 1 µM, first compound 3.16 µM) 60.6% | viability, T/C (second compound 1 µM, first compound 10 µM) 61.5% | viability, T/C [33] 27.9% | viability, T/C [34] 29.2% | viability, T/C [35] 31.4% | viability, T/C [36] 39.6% | viability, T/C (second compound 3.16 µM, first compound 3.16 µM) 58.5% | viability, T/C (second compound 3.16 µM, first compound 10 µM) 66% | viability, T/C [39] 32.1% | viability, T/C [40] 31.8% | viability, T/C [41] 41.6% | viability, T/C [42] 49.3% | viability, T/C (second compound 10 µM, first compound 3.16 µM) 77.7% | viability, T/C (second compound 10 µM, first compound 10 µM) 78.7%

CCN1CCN(Cc2ccc(Nc3ncc(F)c(-c4cc(F)c5nc(C)n(C(C)C)c5c4)n3)nc2)CC1 + C=CC(=O)N1CCN(c2nc(OCC3CCCN3C)nc3c(F)c(-c4nc(N)cc(C)c4C(F)(F)F)c(Cl)cc23)C(C)C1
inactive: viability, T/C (second compound 0.00316 µM, first compound 0.00316 µM) 114% | viability, T/C (second compound 0.00316 µM, first compound 0.01 µM) 106% | viability, T/C (second compound 0.00316 µM, first compound 0.0316 µM) 102% | viability, T/C (second compound 0.00316 µM, first compound 0.1 µM) 125% | viability, T/C (second compound 0.00316 µM, first compound 0.316 µM) 131% | viability, T/C (second compound 0.00316 µM, first compound 1 µM) 134% | viability, T/C (second compound 0.01 µM, first compound 0.00316 µM) 104% | viability, T/C (second compound 0.01 µM, first compound 0.01 µM) 106% | viability, T/C (second compound 0.01 µM, first compound 0.0316 µM) 91.4% | viability, T/C (second compound 0.01 µM, first compound 0.1 µM) 112% | viability, T/C (second compound 0.01 µM, first compound 0.316 µM) 146% | viability, T/C (second compound 0.01 µM, first compound 1 µM) 131% | viability, T/C [7] 117% | viability, T/C [8] 87.1% | viability, T/C [9] 100% | viability, T/C [10] 121% | viability, T/C [11] 141% | viability, T/C [12] 132% | viability, T/C [13] 97.1% | viability, T/C [14] 108% | viability, T/C [15] 100% | viability, T/C [16] 104% | viability, T/C [17] 106% | viability, T/C [18] 135% | viability, T/C [19] 85.5% | viability, T/C [20] 115% | viability, T/C [21] 122% | viability, T/C [22] 99.8% | viability, T/C [23] 126% | viability, T/C [24] 126% | viability, T/C [25] 109% | viability, T/C [26] 104% | viability, T/C [27] 121% | viability, T/C [28] 113% | viability, T/C [29] 138% | viability, T/C [30] 134%
> 1000 nM: IC50 (curve of first compound, second compound 0.00316 µM) | IC50 (curve of first compound, second compound 0.01 µM) | IC50 [1] | IC50 [2] | IC50 [3] | IC50 [4]

CCc1c2c(nc3ccc(O)cc13)-c1cc3c(c(=O)n1C2)COC(=O)[C@]3(O)CC
> 300 nM: IC50 (curve of compound)
inactive: viability, T/C (compound 0.000949 µM) 106% [middle of 4 runs] | viability, T/C (compound 0.003 µM) 107% (2×) and 119% and 122%

CCN1CCN(Cc2ccc(Nc3ncc(F)c(-c4cc(F)c5nc(C)n(C(C)C)c5c4)n3)nc2)CC1 + C#Cc1c(F)ccc2cc(O)cc(-c3ncc4c(N5CC6CCC(C5)N6)nc(OCC56CCCN5CC(F)C6)nc4c3F)c12
> 1000 nM: IC50 [1] | IC50 [2] | IC50 [3] | IC50 [4] | IC50 [5] | IC50 [6]
inactive: viability, T/C [7] 101% | viability, T/C [8] 101% | viability, T/C [9] 112% | viability, T/C [10] 119% | viability, T/C [11] 127% | viability, T/C [12] 127% | viability, T/C [13] 125% | viability, T/C [14] 95.5% | viability, T/C [15] 107% | viability, T/C [16] 106% | viability, T/C [17] 135% | viability, T/C [18] 126% | viability, T/C [19] 105% | viability, T/C [20] 108% | viability, T/C [21] 109% | viability, T/C [22] 121% | viability, T/C [23] 117% | viability, T/C [24] 129% | viability, T/C [25] 97.3% | viability, T/C [26] 100% | viability, T/C [27] 96.7% | viability, T/C [28] 103% | viability, T/C [29] 119% | viability, T/C [30] 132% | viability, T/C [31] 107% | viability, T/C [32] 112% | viability, T/C [33] 103% | viability, T/C [34] 118% | viability, T/C [35] 134% | viability, T/C [36] 131% | viability, T/C [37] 90.2% | viability, T/C [38] 90.1% | viability, T/C [39] 101% | viability, T/C [40] 111% | viability, T/C [41] 104% | viability, T/C [42] 120%
